Changes are numbered by the printed parent chain.
How the values were obtained:
Experiment in all cases: HEK assay: α-Gal A activity in HEK-293 cell lysate with migalastat
Type in all cases: cell-based
[1] = molecular target: T1, α-Gal A mutant form p.Asp55Val/Glu57Leu (c.164 A > T; c.170 A > T) (Homo sapiens, UniProt P06280, D55V/Q57L)
T1 construct: expressed in transfected cells; host or cells: HEK-293
T1 sequence (P06280 32-429 D55V/Q57L): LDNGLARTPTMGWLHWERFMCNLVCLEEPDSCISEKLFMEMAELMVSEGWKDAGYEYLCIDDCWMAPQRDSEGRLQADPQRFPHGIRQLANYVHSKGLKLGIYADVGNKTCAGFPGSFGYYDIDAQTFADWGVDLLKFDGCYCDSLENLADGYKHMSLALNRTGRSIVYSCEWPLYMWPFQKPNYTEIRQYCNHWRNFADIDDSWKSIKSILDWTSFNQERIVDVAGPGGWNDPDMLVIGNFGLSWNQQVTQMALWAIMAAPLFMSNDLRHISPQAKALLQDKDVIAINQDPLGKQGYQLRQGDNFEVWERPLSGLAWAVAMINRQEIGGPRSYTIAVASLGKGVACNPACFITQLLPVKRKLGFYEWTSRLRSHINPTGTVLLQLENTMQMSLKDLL
In short: (§1)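 Transient HEK-293 expression of mutant α-Gal A; ±migalastat 17 nM–1 mM, 4–5 d; lysate α-Gal A by 4-MU-α-Gal fluorescence or western blot.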

[2] = molecular target: T2, α-Gal A mutant form p.Gly258Arg (c.772 G > C) (Homo sapiens, UniProt P06280, G258R)
T2 construct: expressed in transfected cells; host or cells: HEK-293
T2 sequence (P06280 32-429 G258R): T1 sequence (P06280 32-429 D55V/Q57L) with V24D, L26Q, G227R
In short: as §1

[3] = molecular target: T3, α-Gal A mutant form p.Gly260Ala (c.779 G > C) (Homo sapiens, UniProt P06280, G260A)
T3 construct: expressed in transfected cells; host or cells: HEK-293
T3 sequence (P06280 32-429 G260A): T1 sequence (P06280 32-429 D55V/Q57L) with V24D, L26Q, G229A
In short: as §1

[4] = molecular target: T4, α-Gal A mutant form p.Leu300Pro (c.899 T > C) (Homo sapiens, UniProt P06280, L300P)
T4 construct: expressed in transfected cells; host or cells: HEK-293
T4 sequence (P06280 32-429 L300P): T1 sequence (P06280 32-429 D55V/Q57L) with V24D, L26Q, L269P
In short: as §1

[5] = molecular target: T5, α-Gal A mutant form p.Tyr216Cys (c.647 A > G) (Homo sapiens, UniProt P06280, Y216C)
T5 construct: expressed in transfected cells; host or cells: HEK-293
T5 sequence (P06280 32-429 Y216C): T1 sequence (P06280 32-429 D55V/Q57L) with V24D, L26Q, Y185C
In short: as §1

[6] = +10 μM migalastat, HEK-293 cell lysate, mean ± SEM, n = 20
[7] = HEK293, 10 μM migalastat minus baseline, read-out: Absolute increase at 10 μM (% WT)

Structure (SMILES): OC[C@H]1NC[C@H](O)[C@@H](O)[C@H]1O [migalastat]
- activation at 10 µM ([1]; 10 μM migalastat minus baseline, read-out: Absolute increase at 10 μM (% WT)): 8%
- +Migalastat α-Gal A activity [1, 6]: 2526 ± 287 nmol/mg/h
- +Migalastat α-Gal A activity % WT [1, 6]: 8.0 ± 0.5 % WT
- α-Gal A activity at 10 μM (fold over baseline) ([2]; 10 μM migalastat): 2.37 fold over baseline
- +Migalastat α-Gal A activity [2, 6]: 22630 ± 801 nmol/mg/h
- +Migalastat α-Gal A activity % WT [2, 6]: 78.1 ± 5.8 % WT
- activation at 10 µM [2, 7]: 45.5%
- α-Gal A activity at 10 μM (fold over baseline) ([3]; 10 μM migalastat): 4.84 fold over baseline
- +Migalastat α-Gal A activity [3, 6]: 10749 ± 403 nmol/mg/h
- +Migalastat α-Gal A activity % WT [3, 6]: 37.4 ± 3.1 % WT
- activation at 10 µM [3, 7]: 29.9%
- α-Gal A activity at 10 μM (fold over baseline) ([4]; 10 μM migalastat): 10.35 fold over baseline
- +Migalastat α-Gal A activity [4, 6]: 13219 ± 412 nmol/mg/h
- +Migalastat α-Gal A activity % WT [4, 6]: 37.9 ± 1.2 % WT
- activation at 10 µM [4, 7]: 34.2%
- α-Gal A activity at 10 μM (fold over baseline) ([5]; 10 μM migalastat): 10.40 fold over baseline
- +Migalastat α-Gal A activity [5, 6]: 7003 ± 305 nmol/mg/h
- +Migalastat α-Gal A activity % WT [5, 6]: 20.7 ± 0.8 % WT
- activation at 10 µM [5, 7]: 18.7%

— patent US20210038579A1, “Treatment Of Patients With Classic Fabry Disease” (Amicus Therapeutics, Inc., priority 2018, published 2021)
